Laboratory results as given in US20250034216A1, “STEREOSELECTIVE COVALENT LIGANDS FOR ONCOGENIC AND IMMUNOLOGICAL PROTEINS” (The Scripps Research Institute, priority 2021, published 2025).

Assays:
Test in all cases: IA-DTB cysteine engagement
Format in all cases: binding
Conditions in all cases: 22Rv1 cells, 20 μM probe, 1 h, relative to DMSO
[1] = target: T1, DHX9_C608 (Homo sapiens, UniProt Q08211)
T1 construct: endogenous in cells; host or cells: 22Rv1
Method in brief: (§1)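 Read-out is TMT-based cysteine engagement, expressed as each reporter ion intensity divided by the average of the DMSO channels. Before that, probe-treated cell lysates were capped with IA-DTB, digested, enriched on streptavidin and TMT-tagged. PSMs with DMSO summed intensity <10,000 or DMSO CV >0.5 were excluded.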

[2] = target: T2, HMOX2_C265 (Homo sapiens, UniProt P30519)
T2 construct: endogenous in cells; host or cells: 22Rv1
T2 sequence (P30519 1-316): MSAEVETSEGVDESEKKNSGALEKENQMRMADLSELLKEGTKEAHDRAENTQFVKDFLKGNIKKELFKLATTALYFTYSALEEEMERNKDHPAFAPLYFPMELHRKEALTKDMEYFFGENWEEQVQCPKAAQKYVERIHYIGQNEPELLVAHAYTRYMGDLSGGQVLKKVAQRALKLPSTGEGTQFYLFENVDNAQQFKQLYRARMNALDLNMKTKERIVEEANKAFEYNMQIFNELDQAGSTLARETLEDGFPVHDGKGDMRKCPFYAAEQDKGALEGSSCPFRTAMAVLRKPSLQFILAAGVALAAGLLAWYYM
Method in brief: as §1

[3] = target: T3, HNRNPLL_C235 (Homo sapiens, UniProt Q8WVV9)
T3 construct: endogenous in cells; host or cells: 22Rv1
T3 sequence (Q8WVV9 1-542): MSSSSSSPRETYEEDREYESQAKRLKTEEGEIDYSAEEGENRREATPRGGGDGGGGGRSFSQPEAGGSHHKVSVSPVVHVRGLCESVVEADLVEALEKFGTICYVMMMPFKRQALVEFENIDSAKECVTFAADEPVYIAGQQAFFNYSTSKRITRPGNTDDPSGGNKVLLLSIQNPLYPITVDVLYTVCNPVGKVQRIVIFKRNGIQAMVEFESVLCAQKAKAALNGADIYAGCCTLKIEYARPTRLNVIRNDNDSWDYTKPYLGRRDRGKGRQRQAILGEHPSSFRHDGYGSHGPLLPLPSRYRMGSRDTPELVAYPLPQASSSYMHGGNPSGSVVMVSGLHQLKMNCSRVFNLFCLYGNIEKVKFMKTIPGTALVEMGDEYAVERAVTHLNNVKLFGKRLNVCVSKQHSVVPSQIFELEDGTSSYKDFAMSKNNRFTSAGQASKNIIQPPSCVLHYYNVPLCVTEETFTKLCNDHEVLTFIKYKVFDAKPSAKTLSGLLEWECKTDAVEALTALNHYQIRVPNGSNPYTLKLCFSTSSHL
Method in brief: as §1

[4] = target: T4, KRTCAP3_C197 (Homo sapiens, UniProt Q53RY4)
T4 construct: endogenous in cells; host or cells: 22Rv1
T4 sequence (Q53RY4 1-240): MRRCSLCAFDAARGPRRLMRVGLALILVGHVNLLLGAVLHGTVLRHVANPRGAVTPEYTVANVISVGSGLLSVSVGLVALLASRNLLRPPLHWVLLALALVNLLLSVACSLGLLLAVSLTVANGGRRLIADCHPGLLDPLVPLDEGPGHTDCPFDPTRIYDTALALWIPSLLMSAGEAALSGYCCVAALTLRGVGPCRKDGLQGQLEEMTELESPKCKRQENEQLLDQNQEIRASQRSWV
Method in brief: as §1

T1 sequence (Q08211 whole entry): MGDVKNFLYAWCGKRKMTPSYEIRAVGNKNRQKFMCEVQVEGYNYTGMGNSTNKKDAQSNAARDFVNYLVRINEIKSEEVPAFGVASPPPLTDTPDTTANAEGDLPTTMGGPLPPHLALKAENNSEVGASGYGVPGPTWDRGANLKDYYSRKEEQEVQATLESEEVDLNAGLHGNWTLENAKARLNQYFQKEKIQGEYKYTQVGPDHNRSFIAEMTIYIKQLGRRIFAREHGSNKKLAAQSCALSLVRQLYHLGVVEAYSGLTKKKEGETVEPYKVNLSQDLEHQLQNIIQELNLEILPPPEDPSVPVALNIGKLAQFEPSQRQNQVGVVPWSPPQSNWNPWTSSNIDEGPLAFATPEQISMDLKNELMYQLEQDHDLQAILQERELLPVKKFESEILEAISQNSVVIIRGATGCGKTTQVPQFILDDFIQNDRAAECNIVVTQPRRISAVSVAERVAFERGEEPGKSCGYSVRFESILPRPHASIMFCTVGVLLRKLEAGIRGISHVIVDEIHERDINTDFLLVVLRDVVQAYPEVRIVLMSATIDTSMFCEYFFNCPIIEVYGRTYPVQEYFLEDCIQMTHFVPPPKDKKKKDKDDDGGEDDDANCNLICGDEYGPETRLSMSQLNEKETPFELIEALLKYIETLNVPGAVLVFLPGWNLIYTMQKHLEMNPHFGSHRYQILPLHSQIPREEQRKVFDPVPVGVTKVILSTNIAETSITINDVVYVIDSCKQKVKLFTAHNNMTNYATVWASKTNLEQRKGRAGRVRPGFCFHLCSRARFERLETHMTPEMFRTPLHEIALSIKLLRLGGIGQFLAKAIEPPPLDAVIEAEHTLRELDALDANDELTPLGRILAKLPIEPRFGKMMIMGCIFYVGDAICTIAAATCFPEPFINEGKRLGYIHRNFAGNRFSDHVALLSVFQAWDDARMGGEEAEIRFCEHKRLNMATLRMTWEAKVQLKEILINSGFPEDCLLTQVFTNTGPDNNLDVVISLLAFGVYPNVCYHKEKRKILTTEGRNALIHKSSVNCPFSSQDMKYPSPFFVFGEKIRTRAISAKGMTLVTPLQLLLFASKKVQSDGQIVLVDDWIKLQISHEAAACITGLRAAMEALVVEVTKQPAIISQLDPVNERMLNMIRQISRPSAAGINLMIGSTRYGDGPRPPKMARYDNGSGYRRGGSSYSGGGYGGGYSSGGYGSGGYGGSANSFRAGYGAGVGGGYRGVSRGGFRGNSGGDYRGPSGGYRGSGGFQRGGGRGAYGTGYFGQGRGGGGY

C=CC(=O)N1C[C@@H](c2ccc(Br)cc2)[C@H]1C(=O)Nc1cccc2cccnc12 [MY-1A, (2S,3R)-1-acryloyl-3-(4-bromophenyl)-N-(quinolin-8-yl)azetidine-2-carboxamide]
% engagement DHX9_C608 [1]: −10.5% | % engagement HMOX2_C265 [2]: 72.5% | % engagement HNRNPLL_C235 [3]: 15% | % engagement KRTCAP3_C197 [4]: 61%

C=CC(=O)N1C[C@H](c2ccc(Br)cc2)[C@@H]1C(=O)Nc1cccc2cccnc12 [MY-1B, (2R,3S)-1-acryloyl-3-(4-bromophenyl)-N-(quinolin-8-yl)azetidine-2-carboxamide]
% engagement DHX9_C608 [1]: −11% | % engagement HMOX2_C265 [2]: 73.5% | % engagement HNRNPLL_C235 [3]: 34% | % engagement KRTCAP3_C197 [4]: 69.5%

C=CC(=O)N1C[C@H](c2ccc(Br)cc2)[C@H]1C(=O)Nc1cccc2cccnc12 [MY-3A, (2S,3S)-1-acryloyl-3-(4-bromophenyl)-N-(quinolin-8-yl)azetidine-2-carboxamide]
% engagement DHX9_C608 [1]: 16% | % engagement HMOX2_C265 [2]: 71.75% | % engagement HNRNPLL_C235 [3]: −7.5% | % engagement KRTCAP3_C197 [4]: 31%

C=CC(=O)N1C[C@H](c2ccc(Br)cc2)[C@H]1C(=O)Nc1cccc2cccnc12 [MY-3B, (2S,3S)-1-acryloyl-3-(4-bromophenyl)-N-(quinolin-8-yl)azetidine-2-carboxamide]
% engagement DHX9_C608 [1]: 69.5% | % engagement HMOX2_C265 [2]: 79.5% | % engagement HNRNPLL_C235 [3]: 75% | % engagement KRTCAP3_C197 [4]: 54%
